In PMC11206029, “Identification and Characterization of Cannabichromene’s Major Metabolite Following Incubation with Human Liver Microsomes” (Metabolites, 2024):
Like-named read-outs stand apart in the source and are kept apart here.

Tests used:
[1] = target: human recombinant CB1R (Homo sapiens, UniProt P21554); experiment: biochemical; assay type: binding
[2] = target: human recombinant CB2R (Homo sapiens, UniProt P34972); experiment: Competitive radioligand binding assay, displacement of [^3H]CP 55,940; conditions: for Hill Slope: CB2R, means ± S.E.M. of four to ten experiments
Chain of human recombinant CB2R (P34972 whole entry): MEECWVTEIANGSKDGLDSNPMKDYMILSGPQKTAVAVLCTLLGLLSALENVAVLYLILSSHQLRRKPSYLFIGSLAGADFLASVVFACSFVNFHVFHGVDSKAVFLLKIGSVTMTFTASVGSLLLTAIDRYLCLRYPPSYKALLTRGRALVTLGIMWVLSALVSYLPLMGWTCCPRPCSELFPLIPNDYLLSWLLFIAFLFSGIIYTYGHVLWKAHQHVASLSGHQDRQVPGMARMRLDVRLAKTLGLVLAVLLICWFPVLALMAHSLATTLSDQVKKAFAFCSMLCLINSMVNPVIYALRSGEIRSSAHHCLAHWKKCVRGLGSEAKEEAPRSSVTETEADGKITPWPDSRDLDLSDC

[3] = tested on: microglia; set-up: method as in PMID 38477310; conditions: microglia following lipopolysaccharide challenge; cited from earlier work
[4] = Incubation of CBC with pooled human liver microsomes, metabolite identification; assay type: in vitro ADME
Procedure: To maximize the yield of CBC metabolites, parameters including incubation time, HLM protein concentration, and CBC concentration were optimized, and representative extracted ion chromatograms are available in the Supplementary Materials (Section S1.2). The parameters resulting in the highest yield of metabolites were determined to be 0.5 mg/mL HLM, 50 µg/mL CBC, and a 40 min incubation time. Prior to adding the drug, the NADPH-generating system was incubated on a shaker set to 150 rpm at a temperature of 37 ± 2 °C for 10 min (C24 Incubator Shaker, New Brunswick Scientific, Edison, NJ, USA). […]
The HPLC components for the semi-preparative isolation of the major CBC metabolite were as follows: G1322A degasser, G1312A binary pump, G1329B 1260 ALS, G1315B DAD, G1364B fraction collector (all Agilent Technologies, Santa Clara, CA, USA), and an external column compartment ThermaSphere (Phenomenex, Torrance, CA, USA). […] UV absorbance was monitored at 210 nm and 231 nm. […] Isolated metabolites and controls were analyzed utilizing both LC-MS/MS and GC-MS/MS as described below. […]
Samples were derivatized and analyzed using GC-MS/MS based on the previous literature. […] Samples were cooled, transferred to autosampler vials and immediately analyzed via GC-MS/MS. […]

[5] = set-up: method as in PMID 1806943; conditions: hamster-derived liver microsomes; cited from earlier work
[6] = set-up: method as in PMID 1806943; conditions: gerbil-derived liver microsomes; cited from earlier work
[7] = set-up: method as in PMID 1806943; conditions: cat-derived liver microsomes; cited from earlier work
[8] = set-up: method as in PMID 37574147; conditions: human hepatic biotransformation; cited from earlier work

Chain of human recombinant CB1R (P21554 whole entry): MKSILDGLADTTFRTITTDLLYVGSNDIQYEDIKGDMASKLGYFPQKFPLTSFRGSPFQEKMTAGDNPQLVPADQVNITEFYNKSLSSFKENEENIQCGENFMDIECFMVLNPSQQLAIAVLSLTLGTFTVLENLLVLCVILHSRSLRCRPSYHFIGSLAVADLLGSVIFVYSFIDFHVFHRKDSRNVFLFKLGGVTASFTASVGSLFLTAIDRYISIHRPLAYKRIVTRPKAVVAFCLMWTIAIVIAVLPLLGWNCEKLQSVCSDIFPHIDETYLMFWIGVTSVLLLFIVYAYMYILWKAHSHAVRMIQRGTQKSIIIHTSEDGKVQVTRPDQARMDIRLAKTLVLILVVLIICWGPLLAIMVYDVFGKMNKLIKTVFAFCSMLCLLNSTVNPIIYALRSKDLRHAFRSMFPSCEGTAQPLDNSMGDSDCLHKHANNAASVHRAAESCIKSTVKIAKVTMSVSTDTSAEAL

| Structure (SMILES) | Ki [1] [µM] | Ki [2] [µM] | Inflammatory phenotype by nitric oxide production [3] | Hill Slope [2] | further results |
| --- | --- | --- | --- | --- | --- |
| CCCCCc1cc2c3c(c1)OC1(C)CCC(C3C1O)C(C)(C)O2 (stereo not drawn) [2′-hydroxycannabicitran] | > 10 | > 10 |  |  |  |
| CCCCCc1cc(O)c2c(c1)OC(C)(CCC(O)C(C)(C)O)C=C2 (stereo not drawn) [6′, 7′-dihydroxy-CBC] |  |  | reduction in nitric oxide production |  |  |
| CCCCCc1cc(O)c2c(c1)OC(C)(CC/C=C(\C)CO)C=C2 (stereo not drawn) [8′-hydroxy-CBC] |  |  | pro-inflammatory |  |  |
| CCCCCc1cc(O)c2c(c1)OC(C)(CCC=C(C)C)C=C2 (stereo not drawn) [CBC, Cannabichromene] | 3.5 ± 1.2 | 0.301 ± 0.072 |  | −1.32 ± 0.36 | Hill Slope ([1]; CB1R, means ± S.E.M. of four to ten experiments): −0.27 ± 0.51; Major metabolite generated by HLMs ([4]; 0.5 mg/mL HLM, 50 µg/mL CBC, 40 min incubation, NADPH-generating system): 2′-hydroxycannabicitran; Formation of carboxylic acid metabolites ([4]; incubation with HLM, optimized conditions): did not observe any carboxylic acid metabolites; Epoxidation across the alkene on the branched aliphatic chain, share of the total amount of metabolites generated [5]: 10%; Epoxidation across the alkene on the branched aliphatic chain, share of the total amount of metabolites generated [6]: 12%; Epoxidation across the alkene on the branched aliphatic chain, share of the total amount of metabolites generated [7]: 42%; Hydroxylation, share of all CBC metabolites produced [8]: 31%; Monoglucuronides, share of all CBC metabolites produced [8]: ~50% |
| CCCCCc1cc2c3c(c1)OC(C)(C)C1CCC(C)(CC31)O2 (stereo not drawn) [CBT-C, cannabicitran, reference compound] | > 10 | 4.2 ± 0.41 |  | −1.15 ± 0.14 |  |
